This is an account of results in patent US10363257B2 (ZENITH EPIGENETICS LTD., priority 2013, dated 2019).

Assay [1] addresses T1, Brd4 bromodomain 1 (BRD4(1)) (Homo sapiens, UniProt O60885).
T1 construct: made in house; host or cells: E. coli BL21(DE3)
Kind of assay: Inhibition of tetra-acetylated histone H4 binding to Brd4 bromodomain 1 (TR-FRET). The conditions noted are these: tetra-acetylated histone H4 peptide, first bromodomain of Brd4. In outline: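 His-tagged BRD4(1) from E. coli (200 nM) with biotinylated tetra-acetylated H4 peptide (25-50 nM), Eu-cryptate streptavidin and XL665 anti-His, in HEPES pH 7.4/phosphate/KF buffer, 0.2% DMSO. After 2 h at room temperature, TR-FRET 665/620 nm ratio read; IC50 from dose-response curves.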
On the technique in general: In TR-FRET formats the signal depends on donor and acceptor labels being close together.

A further assay has as its system hIL-6 mRNA. Kind of assay: Inhibition of hIL-6 mRNA transcription in LPS-stimulated U937 cells. Type of assay: cell-based. The conditions noted are these: Homo sapiens, U-937; PMA-differentiated U937 cells, 1 h pretreatment, 1 ug/mL LPS stimulation, 3 h; read-out: IL-6 activity (Inhibition of hIL-6 mRNA Transcription). The procedure: In this example, hIL-6 mRNA in tissue culture cells was quantitated to measure the transcriptional inhibition of hIL-6 when treated with a compound of the invention.
Human leukemic monocyte lymphoma U937 cells (CRL-1593.2) were plated at a density of 3.2×10^4 cells per well in a 96-well plate in 100 μL RPMI-1640 containing 10% FBS and penicillin/streptomycin, and differentiated into macrophages for 3 days in 60 ng/mL PMA ([…]) at 37° C. in 5% CO2 prior to the addition of compound. The cells were pretreated for 1 h with increasing concentrations of test compound in 0.1% DMSO prior to stimulation with 1 ug/mL lipopolysaccharide from Escherichia coli. Triplicate wells were used for each concentration. The cells were incubated at 37° C., 5% CO2 for 3 h before the cells were harvested. At time of harvest, media was removed and cells were rinsed in 200 μL PBS. Cells were harvested using the mRNA Catcher PLUS kit according to manufacturer's instructions. The eluted mRNA was then used in a one-step quantitative real-time PCR reaction using components of the RNA UltraSense™ One-Step Kit (Life Technologies) together with Applied Biosystems TaqMan® primer-probes for hIL-6 and Cyclophilin. Real-time PCR plates were run on a VIa™ 7 real time PCR machine (Applied Biosystems), data was analyzed, normalizing the Ct values for hIL-6 to an internal control, prior to determining the fold expression of each sample, relative to the control.

For another assay, the system named is c-myc. Kind of assay: Inhibition of c-myc expression (mRNA, real-time PCR) in MV4-11 cells. Type of assay: cell-based. The conditions noted are these: Human AML MV4-11 cells, 3 h, cMYC mRNA. The procedure:
MV4-11 cells (CRL-9591) were plated at a density of 2.5×10^4 cells per well in 96 well U-bottom plates and treated with increasing concentrations of test compound or DMSO (0.1%) in IMDM media containing 10% FBS and penicillin/streptomycin, and incubated for 3 h at 37° C. Triplicate wells were used for each concentration. Cells were pelleted by centrifugation and harvested using the mRNA Catcher PLUS kit according to manufacturer's instructions. The eluted mRNA isolated was then used in a one-step quantitative real-time PCR reaction, using components of the RNA UltraSense™ One-Step Kit (Life Technologies) together with Applied Biosystems TaqMan® primer-probes for cMYC and Cyclophilin. Real-time PCR plates were run on a VIaTM7 real time PCR machine (Applied Biosystems), data was analyzed, normalizing the Ct values for cMYC to an internal control, prior to determining the fold expression of each sample, relative to the control.
(In general: Quantitative PCR measures a nucleic acid by following its amplification.)

Another assay concerns human AML MV-4-11 cells. Kind of assay: Inhibition of cell proliferation in MV4-11 cells (CellTiter Aqueous One). Type of assay: cell-based. Particulars: for IC50: MV4-11, 72 h. As to the method: MV4-11 cells: 96-well plates were seeded with 5×10^4 cells per well of exponentially growing human AML MV-4-11 (CRL-9591) cells and immediately treated with two-fold dilutions of test compounds, ranging from 30 μM to 0.2 μM. Triplicate wells were used for each concentration, as well as a media only and three DMSO control wells. The cells and compounds were incubated at 37° C., 5% CO2 for 72 h before adding 20 μL of the CellTiter Aqueous One Solution (Promega) to each well and incubating at 37° C., 5% CO2 for an additional 3-4 h. The absorbance was taken at 490 nm in a spectrophotometer and the percentage of proliferation relative to DMSO-treated cells was calculated after correction from the blank well. IC50 were calculated using the GraphPad Prism software.

For the compound `Cc1noc(C)c1-c1cc2c(ccn2Cc2ccccc2)[nH]c1=O` [Example Compound 56, 1-benzyl-6-(3,5-dimethylisoxazol-4-yl)-1H-pyrrolo[3,2-b]pyridin-5(4H)-one], the IC50 was 0.3 to 3 µM in assay [1] and 3 to 30 µM in the assay on hIL-6 mRNA.

`Cc1noc(C)c1-c1cc(N2CCC2=O)c2nc(C)n(Cc3ccccc3)c2c1` [compound 183, 1-(1-benzyl-6-(3,5-dimethylisoxazol-4-yl)-2-methyl-1H-benzo[d]imidazol-4-yl)azetidin-2-one]: the figures for the IC50 (in assay [1]; with c-myc; in the assay with human AML MV-4-11 cells) were at most 0.3 µM, 0.3 to 3 µM and 3 to 30 µM, respectively.

As for `Cc1noc(C)c1-c1cnc2nc(NCc3cccnc3)n(Cc3ccccc3)c2c1` [compound 185, 1-benzyl-6-(3,5-dimethylisoxazol-4-yl)-N-(pyridin-3-ylmethyl)-1H-imidazo[4,5-b]pyridin-2-amine], the IC50 (in assay [1]; in the assay on c-myc; with human AML MV-4-11 cells) was at most 0.3 µM throughout.

Take `Cc1noc(C)c1-c1cc(Br)c2nc(C)n(CCc3ccccc3)c2c1` [compound 186, 4-(4-bromo-2-methyl-1-phenethyl-1H-benzo[d]imidazol-6-yl)-3,5-dimethylisoxazole]: the IC50 in assay [1] is at most 0.3 µM; in the assay with c-myc it was 3 to 30 µM. Moreover, the “Cell Proliferation activity” value in the assay with human AML MV-4-11 cells (72 h) was “Not active”.

As for `Cc1noc(C)c1-c1cnc2nc(C)n(CC3CCCCC3)c2c1` [compound 191, 4-(1-(cyclohexylmethyl)-2-methyl-1H-imidazo[4,5-b]pyridin-6-yl)-3,5-dimethylisoxazole], the figures for the IC50 (in assay [1]; in the assay on c-myc; in the assay on human AML MV-4-11 cells) were at most 0.3 µM, at most 0.3 µM and 0.3 to 3 µM, respectively.

For `Cc1noc(C)c1-c1cnc2nc(C)n(CC3CCCC3)c2c1` [compound 192, 4-(1-(cyclopentylmethyl)-2-methyl-1H-imidazo[4,5-b]pyridin-6-yl)-3,5-dimethylisoxazole], the IC50 was at most 0.3 µM in assay [1], 0.3 to 3 µM in the assay on c-myc and 0.3 to 3 µM with human AML MV-4-11 cells.

For `Cc1noc(C)c1-c1cnc2nc(C)n(CC3CCC3)c2c1` [compound 193, 4-(1-(cyclobutylmethyl)-2-methyl-1H-imidazo[4,5-b]pyridin-6-yl)-3,5-dimethylisoxazole], the IC50 in assay [1] was at most 0.3 µM; with c-myc, 0.3 to 3 µM; in the assay with human AML MV-4-11 cells it was 0.3 to 3 µM.

Consider `Cc1noc(C)c1-c1cnc2nc(NCc3ccccn3)n(Cc3ccccc3)c2c1` [compound 194, 1-benzyl-6-(3,5-dimethylisoxazol-4-yl)-N-(pyridin-2-ylmethyl)-1H-imidazo[4,5-b]pyridin-2-amine], for which the IC50 (in assay [1]; in the assay on c-myc; in the assay on human AML MV-4-11 cells) was at most 0.3 µM in each case.

On to `Cc1noc(C)c1-c1cnc2nc(N3CCCC3)n(Cc3ccccc3)c2c1` [compound 195, 4-(1-benzyl-2-(pyrrolidin-1-yl)-1H-imidazo[4,5-b]pyridin-6-yl)-3,5-dimethylisoxazole], for which the IC50 (in assay [1]; in the assay with c-myc; with human AML MV-4-11 cells) was at most 0.3 µM throughout.

For the compound `Cc1noc(C)c1-c1cnc2nc(NCCO)n(Cc3ccccc3)c2c1` [compound 196, 2-((1-benzyl-6-(3,5-dimethylisoxazol-4-yl)-1H-imidazo[4,5-b]pyridin-2-yl)amino)ethanol], the IC50 in assay [1] is at most 0.3 µM; in the assay with c-myc it was at most 0.3 µM; with human AML MV-4-11 cells, 0.3 to 3 µM.

As to `Cc1noc(C)c1-c1cc(N2CC(O)C2)c2nc(C)n(Cc3ccccc3)c2c1` [compound 197, 1-(1-benzyl-6-(3,5-dimethylisoxazol-4-yl)-2-methyl-1H-benzo[d]imidazol-4-yl)azetidin-3-ol], the IC50 (in assay [1]; in the assay with c-myc; in the assay with human AML MV-4-11 cells) was at most 0.3 µM each time.

As to `Cn1nccc1-c1cc([N+](=O)[O-])c2c(c1)n(Cc1ccccc1)c(=O)n2C` [compound 198, 1-benzyl-3-methyl-6-(1-methyl-1H-pyrazol-5-yl)-4-nitro-1H-benzo[d]imidazol-2(3H)-one], the values for the IC50 (in assay [1]; with c-myc; with human AML MV-4-11 cells) were at most 0.3 µM, 3 to 30 µM and 3 to 30 µM, respectively.

With `Cn1nccc1-c1cc(N)c2c(c1)n(Cc1ccccc1)c(=O)n2C` [compound 199, 4-amino-1-benzyl-3-methyl-6-(1-methyl-1H-pyrazol-5-yl)-1H-benzo[d]imidazol-2(3H)-one], the IC50 was at most 0.3 µM in assay [1], 0.3 to 3 µM in the assay on c-myc and 0.3 to 3 µM in the assay on human AML MV-4-11 cells.

On to `Cc1oncc1-c1cc(N)c2nc(C)n(Cc3ccccc3)c2c1` [compound 201, 1-benzyl-2-methyl-6-(5-methylisoxazol-4-yl)-1H-benzo[d]imidazol-4-amine], for which the IC50 in assay [1] was at most 0.3 µM; in the assay on c-myc, 0.3 to 3 µM; with human AML MV-4-11 cells, 0.3 to 3 µM.

Take `Cc1noc(C)c1-c1cnc2[nH]c(=O)n(CC3CCCC3)c2c1` [compound 202, 1-(cyclopentylmethyl)-6-(3,5-dimethylisoxazol-4-yl)-1H-imidazo[4,5-b]pyridin-2(3H)-one]: the IC50 in assay [1] was at most 0.3 µM; in the assay with c-myc, 0.3 to 3 µM; in the assay on human AML MV-4-11 cells, 0.3 to 3 µM.

For `Cc1noc(C)c1-c1cnc2[nH]c(=O)n(CC3CCC3)c2c1` [compound 203, 1-(cyclobutylmethyl)-6-(3,5-dimethylisoxazol-4-yl)-1H-imidazo[4,5-b]pyridin-2(3H)-one], the IC50 in assay [1] was at most 0.3 µM; in the assay on c-myc it was 3 to 30 µM; with human AML MV-4-11 cells, 3 to 30 µM.

Regarding `COc1ccc(CNc2nc3ncc(-c4c(C)noc4C)cc3n2Cc2ccccc2)cc1` [compound 205, 1-benzyl-6-(3,5-dimethylisoxazol-4-yl)-N-(4-methoxybenzyl)-1H-imidazo[4,5-b]pyridin-2-amine], the IC50 is at most 0.3 µM in assay [1], 0.3 to 3 µM in the assay with c-myc and 0.3 to 3 µM in the assay on human AML MV-4-11 cells.

For the compound `Cc1noc(C)c1-c1cnc2nc(N3CCOCC3)n(CC3CCC3)c2c1` [compound 210, 4-(1-(cyclobutylmethyl)-6-(3,5-dimethylisoxazol-4-yl)-1H-imidazo[4,5-b]pyridin-2-yl)morpholine], the IC50 in assay [1] was at most 0.3 µM; in the assay with c-myc it was 0.3 to 3 µM; in the assay with human AML MV-4-11 cells it was 0.3 to 3 µM.

For the compound `Cc1noc(C)c1-c1cnc2nc(NCCN(C)C)n(Cc3ccccc3)c2c1` [compound 212, N1-(1-benzyl-6-(3,5-dimethylisoxazol-4-yl)-1H-imidazo[4,5-b]pyridin-2-yl)-N2,N2-dimethylethane-1,2-diamine], the figures for the IC50 (in assay [1]; in the assay on c-myc; in the assay on human AML MV-4-11 cells) were at most 0.3 µM, 0.3 to 3 µM and 0.3 to 3 µM, respectively.

Turning to `Cc1noc(C)c1-c1cnc2nc(N3CCNCC3)n(Cc3ccccc3)c2c1` [compound 213, 4-(1-benzyl-2-(piperazin-1-yl)-1H-imidazo[4,5-b]pyridin-6-yl)-3,5-dimethylisoxazole], the IC50 in assay [1] was at most 0.3 µM; in the assay with c-myc it was 0.3 to 3 µM; with human AML MV-4-11 cells, 0.3 to 3 µM.

`Cc1noc(C)c1-c1cnc2[nH]c(=O)n([C@@H](C)c3ccccc3)c2c1` [compound 219, (S)-6-(3,5-dimethylisoxazol-4-yl)-1-(1-phenylethyl)-1H-imidazo[4,5-b]pyridin-2(3H)-one]: the IC50 (in assay [1]; with c-myc; in the assay with human AML MV-4-11 cells) was 0.3 to 3 µM in each case.

`Cc1noc(C)c1-c1cnc2nc(NC3CCOCC3)n(CC3CCCC3)c2c1` [compound 222, 1-(cyclopentylmethyl)-6-(3,5-dimethylisoxazol-4-yl)-N-(tetrahydro-2H-pyran-4-yl)-1H-imidazo[4,5-b]pyridin-2-amine]: the IC50 (in assay [1]; with c-myc; with human AML MV-4-11 cells) was at most 0.3 µM throughout.
